What was measured:
[1] = biological target: T1, Tyrosine-protein kinase receptor UFO (Homo sapiens, UniProt P30530); assay: Inhibition of GST-tagged AXL (unknown origin) ([…] residues) using Axltide (CKKSRGDYMTMQJG-acid) peptide as substrate preincubated for 30 mins followed by substrate and ATP addition at Km concentration measured after 180 mins by RapidFire LC-MS analysis
T1 sequence (P30530 whole entry): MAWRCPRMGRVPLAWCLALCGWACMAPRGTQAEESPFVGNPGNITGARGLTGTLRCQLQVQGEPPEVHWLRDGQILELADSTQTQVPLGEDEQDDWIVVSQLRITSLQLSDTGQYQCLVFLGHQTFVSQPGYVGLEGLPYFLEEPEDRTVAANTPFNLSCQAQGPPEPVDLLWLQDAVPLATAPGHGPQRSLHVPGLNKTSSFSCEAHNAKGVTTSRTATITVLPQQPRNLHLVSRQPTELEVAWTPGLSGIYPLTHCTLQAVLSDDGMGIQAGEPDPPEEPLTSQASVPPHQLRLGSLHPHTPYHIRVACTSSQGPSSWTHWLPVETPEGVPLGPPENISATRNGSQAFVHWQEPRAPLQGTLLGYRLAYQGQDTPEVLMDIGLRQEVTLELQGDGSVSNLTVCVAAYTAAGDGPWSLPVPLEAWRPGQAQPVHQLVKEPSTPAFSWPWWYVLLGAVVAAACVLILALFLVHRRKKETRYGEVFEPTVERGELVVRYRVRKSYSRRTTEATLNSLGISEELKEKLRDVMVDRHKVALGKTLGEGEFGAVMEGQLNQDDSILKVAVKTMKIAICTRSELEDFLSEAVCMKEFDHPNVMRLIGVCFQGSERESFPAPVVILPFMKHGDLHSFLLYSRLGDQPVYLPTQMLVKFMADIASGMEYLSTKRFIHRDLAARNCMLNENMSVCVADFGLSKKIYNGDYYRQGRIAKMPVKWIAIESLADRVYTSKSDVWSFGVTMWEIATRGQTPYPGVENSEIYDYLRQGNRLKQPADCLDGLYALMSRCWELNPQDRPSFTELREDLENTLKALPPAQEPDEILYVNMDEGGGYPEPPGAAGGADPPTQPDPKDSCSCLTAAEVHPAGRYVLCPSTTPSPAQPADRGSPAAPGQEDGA

[2] = biological target: T2, Tyrosine-protein kinase receptor TYRO3 (Homo sapiens, UniProt Q06418); assay: Inhibition of GST-tagged Tyro3 (unknown origin) (453 to 890 residues) using Axltide (KKSRGDYMTMQIG-acid) peptide as substrate preincubated for 30 mins followed by substrate and ATP addition at Km concentration measured after 180 mins by RapidFire LC-MS analysis
T2 sequence (Q06418 whole entry): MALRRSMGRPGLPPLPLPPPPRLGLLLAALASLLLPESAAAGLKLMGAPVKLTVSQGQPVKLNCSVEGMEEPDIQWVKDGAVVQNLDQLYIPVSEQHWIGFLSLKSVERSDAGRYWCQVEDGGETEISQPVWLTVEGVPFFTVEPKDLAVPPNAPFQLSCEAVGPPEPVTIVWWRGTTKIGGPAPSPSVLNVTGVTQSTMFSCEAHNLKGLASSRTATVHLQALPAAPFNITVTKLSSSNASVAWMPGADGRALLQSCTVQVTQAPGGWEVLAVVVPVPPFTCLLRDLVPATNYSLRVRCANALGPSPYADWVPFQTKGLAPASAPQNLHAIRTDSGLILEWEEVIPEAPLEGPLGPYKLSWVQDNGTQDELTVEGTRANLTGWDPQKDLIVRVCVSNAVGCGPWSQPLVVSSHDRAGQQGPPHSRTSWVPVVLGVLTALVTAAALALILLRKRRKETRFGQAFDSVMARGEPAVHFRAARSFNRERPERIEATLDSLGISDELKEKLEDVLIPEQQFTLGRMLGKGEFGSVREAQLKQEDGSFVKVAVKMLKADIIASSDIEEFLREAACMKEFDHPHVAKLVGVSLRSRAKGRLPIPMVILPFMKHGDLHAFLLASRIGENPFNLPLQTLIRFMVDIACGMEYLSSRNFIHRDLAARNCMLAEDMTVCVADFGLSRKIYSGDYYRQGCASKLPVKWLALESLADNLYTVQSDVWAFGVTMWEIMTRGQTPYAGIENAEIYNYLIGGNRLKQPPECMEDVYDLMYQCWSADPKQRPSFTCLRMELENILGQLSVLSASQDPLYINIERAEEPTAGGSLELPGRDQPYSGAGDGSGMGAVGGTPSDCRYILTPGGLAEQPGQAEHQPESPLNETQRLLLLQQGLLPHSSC

[3] = biological target: T3, Receptor-type tyrosine-protein kinase FLT3 (Homo sapiens, UniProt P36888); assay: Inhibition of His6/TEV fused-GST-tagged Flt3 (unknown origin) (H564 to S993 residues) using Axltide (CKKSRGDYMTMQJ-acid) peptide as substrate preincubated for 30 mins followed by substrate and ATP addition at Km concentration measured after 75 mins by RapidFire LC-MS analysis
T3 sequence (P36888 whole entry): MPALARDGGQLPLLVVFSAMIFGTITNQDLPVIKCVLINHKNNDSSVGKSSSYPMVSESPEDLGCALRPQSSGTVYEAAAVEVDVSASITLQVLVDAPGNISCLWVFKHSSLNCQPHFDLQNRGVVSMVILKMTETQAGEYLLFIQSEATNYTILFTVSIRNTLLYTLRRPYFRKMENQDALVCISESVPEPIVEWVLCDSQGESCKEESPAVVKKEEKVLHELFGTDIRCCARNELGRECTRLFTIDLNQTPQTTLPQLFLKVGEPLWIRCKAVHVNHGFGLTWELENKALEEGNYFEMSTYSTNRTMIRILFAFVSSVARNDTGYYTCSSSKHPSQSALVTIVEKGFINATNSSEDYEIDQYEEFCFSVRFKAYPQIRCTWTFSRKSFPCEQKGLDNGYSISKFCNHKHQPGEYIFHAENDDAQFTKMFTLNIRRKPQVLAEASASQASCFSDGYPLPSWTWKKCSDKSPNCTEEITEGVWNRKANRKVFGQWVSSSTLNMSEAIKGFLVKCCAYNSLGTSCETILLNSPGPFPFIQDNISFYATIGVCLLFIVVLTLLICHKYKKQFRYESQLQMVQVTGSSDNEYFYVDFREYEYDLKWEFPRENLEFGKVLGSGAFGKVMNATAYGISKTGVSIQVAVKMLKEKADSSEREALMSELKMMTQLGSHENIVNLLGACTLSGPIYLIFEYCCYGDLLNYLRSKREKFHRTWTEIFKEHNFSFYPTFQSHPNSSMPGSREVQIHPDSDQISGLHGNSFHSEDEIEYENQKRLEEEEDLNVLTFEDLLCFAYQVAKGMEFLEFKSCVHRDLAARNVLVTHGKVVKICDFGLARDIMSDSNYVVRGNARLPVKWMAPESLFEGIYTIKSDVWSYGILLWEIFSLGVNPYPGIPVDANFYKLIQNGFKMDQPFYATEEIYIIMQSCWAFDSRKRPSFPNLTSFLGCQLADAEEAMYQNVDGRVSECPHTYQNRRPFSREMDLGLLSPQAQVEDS

[4] = Intrinsic clearance in human liver microsomes; assay type: ADME, Microsome; details: read-out: CLH

IC50 [1] [nM] | IC50 [2] [µM] | IC50 [3] [µM] | microsomal CLint [4] [µL/min/mg] | SMILES
10 | 2 | 5.01 | 200 | CNC(=O)c1sc(N2CC3CC2(CNC(=O)c2c[nH]c4ncccc24)C3)nc1C(F)(F)F
15.8 | 0.0316 | > 100 | > 300 | CNC(=O)C[C@@H](NC(=O)[C@@H](CCc1ccccc1)NC(=O)c1c(C)noc1-c1snnc1C)c1ccc(C(F)(F)F)cc1
3.98 | 1 | 1.58 | > 270 | CNC(=O)c1sc(N2CC3CC2(CNC(=O)c2c[nH]c4ncc(C)cc24)C3)nc1C(F)(F)F
1580 | 3.16 | > 50.1 | > 270 | CNc1nc(OCC2CCC2)nc2c1ncn2Cc1c(F)cccc1F
25.1 | > 100 | > 100 | 130 | CNC(=O)c1sc(N2CC3CC2(CNC(=O)c2c[nH]c4ncc(C(F)(F)F)cc24)C3)nc1C(F)(F)F
10 | 0.631 | 1.58 | > 300 | CNC(=O)c1sc(N2CC3CC2(CNC(=O)c2c[nH]c4ncc(Cl)cc24)C3)nc1C(F)(F)F
1580 | 0.251 | 10 | < 3 | C[C@@H]1CN(c2cnc(Nc3cc(F)c(OCC4CC4)c(F)c3)nc2NC2CCOCC2)CCN1

The next lines start with the compound.

SMILES | IC50 [1] [nM] | IC50 [2] [µM] | IC50 [3] [µM] | microsomal CLint [4] [µL/min/mg]
Cc1c(C(=O)Nc2ccc(Oc3ccnc4[nH]cc(-c5ccccc5)c34)c(F)c2)c(=O)n(-c2ccc(F)cc2)n1C | 3.16 | 0.01 | 0.0631 | 16
Cc1cc(N(C)C)ccc1-c1nnc(N(C)Cc2ccc3nccn3c2)o1 | 15800 | > 100 | 31.6 | 55
CN(Cc1ccc2nccn2c1)c1nnc(-c2ccc(-c3ccccc3Cl)cc2)o1 | 398 | 10 | 15.8 | 46
COc1cc2ncnc(Nc3cnc(OCCC4CC4)nc3)c2cc1OCC1CCNCC1 | 3160 | 2 | > 50.1 | < 3
CCn1c(-c2nnc(N(C)Cc3ccc4nccn4c3)o2)nc2ccccc21 | 39800 | 39.8 | 6.31 | 55
CN(Cc1ccc2nccn2c1)c1nnc(-c2ccc(OC3CCCC3)cc2)o1 | 3980 | 79.4 | 20 | 150
O=S(=O)(c1ccc(Nc2ncc(N3CCOCC3)c(Nc3ccccc3)n2)cc1)N1CCCCC1 | 200 | 6.31 | > 39.8 | 190
CN(Cc1ccc2c(c1)CCCO2)c1nnc(-c2ccc(-c3ccccc3Cl)cc2)o1 | 398 | > 100 | > 100 | 19
CN(Cc1ccc2nccn2c1)c1nnc(-c2ncc(C(F)(F)F)cc2Cl)o1 | > 100000 | > 100 | > 100 | 11
CN(Cc1ccc2nccn2c1)c1nnc(-c2ccc(-c3ccccc3Cl)nc2)o1 | 3160 | 20 | 15.8 | 92

— ChEMBL document CHEMBL4732252, “Generating Selective Leads for Mer Kinase Inhibitors-Example of a Comprehensive Lead-Generation Strategy” (J Med Chem, 2021)
